Assay results taken from ChEMBL document CHEMBL3885861, “Open TG-GATES”.

Species on record: Rattus norvegicus
Assay: Open TG-GATES - Regimen: Single
Assay type: toxicity, organism-based, Sprague-Dawley
Parameters: regimen Single, gender Male, age 6 weeks
Conditions: in vivo, po, 400 mg/kg, route gavage, dose level Low; for APTT / Bas / Eos / Fbg / Hb / Ht / Lym / MCH / MCHC / MCV / Mono / Neu / PT / Plat / RBC / Ret / WBC: tissue Blood; for KIDNEY_L / KIDNEY_R / KIDNEY_TOTAL: tissue Kidney; for LIVER: tissue Liver; for A/G / ALP / ALT / AST / BUN / CRE / Ca / Cl / DBIL / GLC / IP / K / LDH / Na / PL / RALB / TBIL / TC / TG / TP / gamma-GTP: tissue Plasma

Structure (SMILES): CCO [ALCOHOL]
- TERMINAL_BW (3 h): 202.6 g
- APTT (3 h): 16.4 s
- Bas (3 h): 0%
- Eos (3 h): 1%
- Fbg (3 h): 202.8 mg/dL
- Hb (3 h): 13.7 g/dL
- Ht (3 h): 40.7%
- Lym (3 h): 81.2%
- MCH (3 h): 21.8 pg
- MCHC (3 h): 33.6%
- MCV (3 h): 64.7 fL
- Mono (3 h): 5.6%
- Neu (3 h): 12.2%
- PT (3 h): 12 s
- Plat (3 h): 115.5 x10_4/uL
- RBC (3 h): 628.6 x10_4/ul
- Ret (3 h): 10%
- WBC (3 h): 77.8 x10_2/uL
- KIDNEY_L (3 h): 0.9 g
- KIDNEY_R (3 h): 0.9 g
- KIDNEY_TOTAL (3 h): 1.8 g
- LIVER (3 h): 9.6 g
- A/G (3 h): 2.5
- ALP (3 h): 1037.2 IU/L
- ALT (3 h): 36.2 IU/L
- AST (3 h): 69 IU/L
- BUN (3 h): 13.8 mg/dL
- CRE (3 h): 0.5 mg/dL
- Ca (3 h): 10.7 mg/dL
- Cl (3 h): 104.4 meq/L
- DBIL (3 h): 0.012 mg/dL
- GLC (3 h): 195.8 mg/dL
- IP (3 h): 9.3 mg/dL
- K (3 h): 4.4 meq/L
- LDH (3 h): 117.6 IU/L
- Na (3 h): 139.8 meq/L
- PL (3 h): 140.4 mg/dL
- RALB (3 h): 3.9 g/dL
- TBIL (3 h): 0.4 mg/dL
- TC (3 h): 76.4 mg/dL
- TG (3 h): 66 mg/dL
- TP (3 h): 5.4 g/dL
- gamma-GTP (3 h): 1.2 IU/L
- TERMINAL_BW (6 h): 202.6 g
- APTT (6 h): 17.9 s
- Bas (6 h): 0%
- Eos (6 h): 1%
- Fbg (6 h): 220.2 mg/dL
- Hb (6 h): 13.8 g/dL
- Ht (6 h): 41.1%
- Lym (6 h): 70.4%
- MCH (6 h): 21.7 pg
- MCHC (6 h): 33.6%
- MCV (6 h): 64.6 fL
- Mono (6 h): 6.6%
- Neu (6 h): 22.4%
- PT (6 h): 11.8 s
- Plat (6 h): 114.6 x10_4/uL
- RBC (6 h): 636.6 x10_4/ul
- Ret (6 h): 10.1%
- WBC (6 h): 98 x10_2/uL
- KIDNEY_L (6 h): 0.9 g
- KIDNEY_R (6 h): 0.9 g
- KIDNEY_TOTAL (6 h): 1.8 g
- LIVER (6 h): 9.6 g
- A/G (6 h): 2.3
- ALP (6 h): 802 IU/L
- ALT (6 h): 29.8 IU/L
- AST (6 h): 61.8 IU/L
- BUN (6 h): 11.2 mg/dL
- CRE (6 h): 0.5 mg/dL
- Ca (6 h): 10.5 mg/dL
- Cl (6 h): 105 meq/L
- DBIL (6 h): 0.068 mg/dL
- GLC (6 h): 197.2 mg/dL
- IP (6 h): 9.8 mg/dL
- K (6 h): 4.7 meq/L
- LDH (6 h): 90.2 IU/L
- Na (6 h): 139.6 meq/L
- PL (6 h): 135.4 mg/dL
- RALB (6 h): 3.8 g/dL
- TBIL (6 h): 0.4 mg/dL
- TC (6 h): 75 mg/dL
- TG (6 h): 53.2 mg/dL
- TP (6 h): 5.4 g/dL
- gamma-GTP (6 h): 1.8 IU/L
- TERMINAL_BW (9 h): 203.1 g
- APTT (9 h): 18.5 s
- Bas (9 h): 0%
- Eos (9 h): 1.4%
- Fbg (9 h): 205 mg/dL
- Hb (9 h): 13.4 g/dL
- Ht (9 h): 40.1%
- Lym (9 h): 70.4%
- MCH (9 h): 21.7 pg
- MCHC (9 h): 33.5%
- MCV (9 h): 64.7 fL
- Mono (9 h): 7.6%
- Neu (9 h): 20.4%
- PT (9 h): 12 s
- Plat (9 h): 110.8 x10_4/uL
- RBC (9 h): 619 x10_4/ul
- Ret (9 h): 10.4%
- WBC (9 h): 90.1 x10_2/uL
- KIDNEY_L (9 h): 0.9 g
- KIDNEY_R (9 h): 0.9 g
- KIDNEY_TOTAL (9 h): 1.8 g
- LIVER (9 h): 8.6 g
- A/G (9 h): 2.9
- ALP (9 h): 826.6 IU/L
- ALT (9 h): 30.2 IU/L
- AST (9 h): 63 IU/L
- BUN (9 h): 12.8 mg/dL
- CRE (9 h): 0.5 mg/dL
- Ca (9 h): 10.9 mg/dL
- Cl (9 h): 105.6 meq/L
- DBIL (9 h): 0.038 mg/dL
- GLC (9 h): 199.4 mg/dL
- IP (9 h): 9.9 mg/dL
- K (9 h): 4.5 meq/L
- LDH (9 h): 106.4 IU/L
- Na (9 h): 137 meq/L
- PL (9 h): 137.4 mg/dL
- RALB (9 h): 4.1 g/dL
- TBIL (9 h): 0.4 mg/dL
- TC (9 h): 79.4 mg/dL
- TG (9 h): 37.2 mg/dL
- TP (9 h): 5.5 g/dL
- gamma-GTP (9 h): 1.8 IU/L
- TERMINAL_BW (24 h): 214.8 g
- APTT (24 h): 16.9 s
- Bas (24 h): 0%
- Eos (24 h): 1.6%
- Fbg (24 h): 196.4 mg/dL
- Hb (24 h): 13.2 g/dL
- Ht (24 h): 39.2%
- Lym (24 h): 75%
- MCH (24 h): 21.3 pg
- MCHC (24 h): 33.7%
- MCV (24 h): 63.3 fL
- Mono (24 h): 7.2%
- Neu (24 h): 17%
- PT (24 h): 11.5 s
- Plat (24 h): 122.1 x10_4/uL
- RBC (24 h): 619 x10_4/ul
- Ret (24 h): 10.5%
- WBC (24 h): 85 x10_2/uL
- KIDNEY_L (24 h): 1 g
- KIDNEY_R (24 h): 1 g
- KIDNEY_TOTAL (24 h): 2 g
- LIVER (24 h): 9.9 g
- A/G (24 h): 2.6
- ALP (24 h): 906 IU/L
- ALT (24 h): 41 IU/L
- AST (24 h): 65.4 IU/L
- BUN (24 h): 17.8 mg/dL
- CRE (24 h): 0.5 mg/dL
- Ca (24 h): 11 mg/dL
- Cl (24 h): 104.4 meq/L
- DBIL (24 h): 0.018 mg/dL
- GLC (24 h): 201 mg/dL
- IP (24 h): 8.1 mg/dL
- K (24 h): 4.7 meq/L
- LDH (24 h): 103.6 IU/L
- Na (24 h): 139 meq/L
- PL (24 h): 142 mg/dL
- RALB (24 h): 4 g/dL
- TBIL (24 h): 0.4 mg/dL
- TC (24 h): 79.2 mg/dL
- TG (24 h): 61.4 mg/dL
- TP (24 h): 5.6 g/dL
- gamma-GTP (24 h): 1.6 IU/L
